# Laboratory results taken from ChEMBL document CHEMBL1154805, “Alternaramide, a cyclic depsipeptide from the marine-derived fungus Alternaria sp. SF-5016” (2009).
# Activity calls are given as the source filed them. The calls are words filed in the database; no cut-off is given here.
# Experiments:
# Cryptococcus neoformans = test: Antifungal activity against Filobasidiella neoformans KCTC 7003 at 400 ug/disk after 48 hrs by disk diffusion method; format: functional, organism-based
# Proteus vulgaris = test: Antibacterial activity against Proteus vulgaris KACC 12674 at 400 ug/disk after 48 hrs by disk diffusion method; format: functional, organism-based
# [1] = target: T1, Tyrosine-protein phosphatase non-receptor type 1 (Homo sapiens) (UniProt P18031); test: Inhibition of human recombinant PTP1B assessed as p-nitrophenol release at 150 ug/ml after 30 mins by spectrophotometry
# T1 sequence (whole entry): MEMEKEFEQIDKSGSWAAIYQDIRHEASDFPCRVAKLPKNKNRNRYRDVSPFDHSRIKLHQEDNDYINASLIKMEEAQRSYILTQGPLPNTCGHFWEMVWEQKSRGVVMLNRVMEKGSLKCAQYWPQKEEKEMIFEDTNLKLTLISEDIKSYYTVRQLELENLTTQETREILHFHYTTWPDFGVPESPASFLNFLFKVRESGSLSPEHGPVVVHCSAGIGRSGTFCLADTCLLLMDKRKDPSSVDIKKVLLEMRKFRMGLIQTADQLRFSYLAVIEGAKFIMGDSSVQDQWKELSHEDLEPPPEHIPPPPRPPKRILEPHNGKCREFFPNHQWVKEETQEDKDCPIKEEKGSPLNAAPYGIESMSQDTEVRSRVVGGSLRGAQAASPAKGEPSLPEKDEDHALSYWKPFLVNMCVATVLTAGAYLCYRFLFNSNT
# Bacillus subtilis [2] = test: Antibacterial activity against Bacillus subtilis KCTC 1021 at 400 ug/disk after 48 hrs by disk diffusion method; format: functional; conditions: KCTC 1021, 48 h, read-out: IZ
# Candida albicans = test: Antifungal activity against Candida albicans KCTC 7965 at 400 ug/disk after 48 hrs by disk diffusion method; format: functional, organism-based
# Staphylococcus aureus [3] = test: Antibacterial activity against Staphylococcus aureus KCTC 1928 at 400 ug/disk after 48 hrs by disk diffusion method; format: functional; conditions: KCTC 1928, 48 h, read-out: IZ
# Bacillus subtilis [4] = test: Antibacterial activity against Bacillus subtilis KCTC 1021 at 5 ug/disk after 48 hrs by disk diffusion method; format: functional, organism-based
# Staphylococcus aureus [5] = test: Antibacterial activity against Staphylococcus aureus KCTC 1928 at 50 ug/disk after 48 hrs by disk diffusion method; format: functional, organism-based
Compound,Activity (Cryptococcus neoformans),Activity (Proteus vulgaris),inhibition [1],zone of inhibition at 400 µg/disc (Bacillus subtilis [2]),Activity (Candida albicans),zone of inhibition at 400 µg/disc (Staphylococcus aureus [3]),inhibition zone (IZ) (Bacillus subtilis [4]),inhibition zone (IZ) (Staphylococcus aureus [5])
CC(C)[C@@H]1OC(=O)[C@@H]2CCCN2C(=O)[C@@H](Cc2ccccc2)NC(=O)[C@@H]2CCCN2C(=O)[C@@H](Cc2ccccc2)NC1=O [ALTERNARAMIDE],inactive,inactive,49%,8 mm,inactive,13 mm,,
GENTAMICIN,,,,,,,16 mm,13 mm
